# System: Unknown protein yeast genes
# Assay: DNA chip mRNA expression in yeast, unknown protein yeast genes (Table 1)
# Type: cell-based, Saccharomyces cerevisiae S288C
# How it was run: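 Ratios compare mRNA levels in stressed and control S. cerevisiae. Each toxicant was applied for two hours to log-phase cultures at 25° C. at a sub-lethal, growth-inhibiting level; fluorescent cDNA (Cy3- or Cy5-dUTP) was hybridized to a genome-wide yeast chip for over 12 h at 65° C.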
smiles,measurement,setting,value
"CCCCCCCCCCCCc1ccc(S(=O)(=O)[O-])cc1.[Na+] [(17), sodium dodecylbenzosulfonate]",The level of expressed mRNA in the presence of chemical substance/The level of expressed mRNA in the absence of chemical substance,"yeast gene YAL053W, incubated two hours with chemical substance",1.2
same,The level of expressed mRNA in the presence of chemical substance/The level of expressed mRNA in the absence of chemical substance,yeast gene YBL048W,1.3
same,The level of expressed mRNA in the presence of chemical substance/The level of expressed mRNA in the absence of chemical substance,yeast gene YBL107C,0.9
same,The level of expressed mRNA in the presence of chemical substance/The level of expressed mRNA in the absence of chemical substance,"yeast gene YDL072C, incubated two hours with chemical substance",1.6
same,The level of expressed mRNA in the presence of chemical substance/The level of expressed mRNA in the absence of chemical substance,"yeast gene YDL204W, incubated two hours with chemical substance",1.8
same,The level of expressed mRNA in the presence of chemical substance/The level of expressed mRNA in the absence of chemical substance,"yeast gene YDL222C, incubated two hours with chemical substance",0.9
same,The level of expressed mRNA in the presence of chemical substance/The level of expressed mRNA in the absence of chemical substance,"yeast gene YDR330W, incubated two hours with chemical substance",1.5
same,The level of expressed mRNA in the presence of chemical substance/The level of expressed mRNA in the absence of chemical substance,"yeast gene YDR411C, incubated two hours with chemical substance",1.5
same,The level of expressed mRNA in the presence of chemical substance/The level of expressed mRNA in the absence of chemical substance,"yeast gene YDR511W, incubated two hours with chemical substance",1.3
same,The level of expressed mRNA in the presence of chemical substance/The level of expressed mRNA in the absence of chemical substance,"yeast gene YDR545W, incubated two hours with chemical substance",0.9
same,The level of expressed mRNA in the presence of chemical substance/The level of expressed mRNA in the absence of chemical substance,"yeast gene YEL001C, incubated two hours with chemical substance",0.7
same,The level of expressed mRNA in the presence of chemical substance/The level of expressed mRNA in the absence of chemical substance,"yeast gene YER004W, incubated two hours with chemical substance",1.4
same,The level of expressed mRNA in the presence of chemical substance/The level of expressed mRNA in the absence of chemical substance,"yeast gene YER035W, incubated two hours with chemical substance",2.2
same,The level of expressed mRNA in the presence of chemical substance/The level of expressed mRNA in the absence of chemical substance,"yeast gene YER079W, incubated two hours with chemical substance",1.0
same,The level of expressed mRNA in the presence of chemical substance/The level of expressed mRNA in the absence of chemical substance,"yeast gene YER106W, incubated two hours with chemical substance",0.8
same,The level of expressed mRNA in the presence of chemical substance/The level of expressed mRNA in the absence of chemical substance,"yeast gene YER158C, incubated two hours with chemical substance",1.6
same,The level of expressed mRNA in the presence of chemical substance/The level of expressed mRNA in the absence of chemical substance,"yeast gene YER163C, incubated two hours with chemical substance",1.2
same,The level of expressed mRNA in the presence of chemical substance/The level of expressed mRNA in the absence of chemical substance,"yeast gene YER175C, incubated two hours with chemical substance",0.9
same,The level of expressed mRNA in the presence of chemical substance/The level of expressed mRNA in the absence of chemical substance,"yeast gene YFL006W, incubated two hours with chemical substance",1.0
same,The level of expressed mRNA in the presence of chemical substance/The level of expressed mRNA in the absence of chemical substance,"yeast gene YFL010C, incubated two hours with chemical substance",1.9
same,The level of expressed mRNA in the presence of chemical substance/The level of expressed mRNA in the absence of chemical substance,yeast gene YFL024C,0.9
same,The level of expressed mRNA in the presence of chemical substance/The level of expressed mRNA in the absence of chemical substance,"yeast gene YFL032W, incubated two hours with chemical substance",1.7
same,The level of expressed mRNA in the presence of chemical substance/The level of expressed mRNA in the absence of chemical substance,"yeast gene YGL037C, incubated two hours with chemical substance",1.3
same,The level of expressed mRNA in the presence of chemical substance/The level of expressed mRNA in the absence of chemical substance,"yeast gene YGL047W, incubated two hours with chemical substance",1.1
same,The level of expressed mRNA in the presence of chemical substance/The level of expressed mRNA in the absence of chemical substance,"yeast gene YGL053W, incubated two hours with chemical substance",2.2
same,The level of expressed mRNA in the presence of chemical substance/The level of expressed mRNA in the absence of chemical substance,yeast gene YGL121C,2.7
same,The level of expressed mRNA in the presence of chemical substance/The level of expressed mRNA in the absence of chemical substance,"yeast gene YGL199C, incubated two hours with chemical substance",1.2
same,The level of expressed mRNA in the presence of chemical substance/The level of expressed mRNA in the absence of chemical substance,"yeast gene YGR101W, incubated two hours with chemical substance",1.0
same,The level of expressed mRNA in the presence of chemical substance/The level of expressed mRNA in the absence of chemical substance,yeast gene YGR110W,0.9
same,The level of expressed mRNA in the presence of chemical substance/The level of expressed mRNA in the absence of chemical substance,"yeast gene YGR130C, incubated two hours with chemical substance",1.3
same,The level of expressed mRNA in the presence of chemical substance/The level of expressed mRNA in the absence of chemical substance,"yeast gene YGR154C, incubated two hours with chemical substance",1.0
same,The level of expressed mRNA in the presence of chemical substance/The level of expressed mRNA in the absence of chemical substance,"yeast gene YGR221C, incubated two hours with chemical substance",1.3
same,The level of expressed mRNA in the presence of chemical substance/The level of expressed mRNA in the absence of chemical substance,"yeast gene YHR138C, incubated two hours with chemical substance",5.0
same,The level of expressed mRNA in the presence of chemical substance/The level of expressed mRNA in the absence of chemical substance,"yeast gene YHR199C, incubated two hours with chemical substance",1.1
same,The level of expressed mRNA in the presence of chemical substance/The level of expressed mRNA in the absence of chemical substance,"yeast gene YIL023C, incubated two hours with chemical substance",1.2
same,The level of expressed mRNA in the presence of chemical substance/The level of expressed mRNA in the absence of chemical substance,"yeast gene YIL041W, incubated two hours with chemical substance",0.8
same,The level of expressed mRNA in the presence of chemical substance/The level of expressed mRNA in the absence of chemical substance,"yeast gene YIL087C, incubated two hours with chemical substance",1.7
same,The level of expressed mRNA in the presence of chemical substance/The level of expressed mRNA in the absence of chemical substance,"yeast gene YJL057C, incubated two hours with chemical substance",1.4
same,The level of expressed mRNA in the presence of chemical substance/The level of expressed mRNA in the absence of chemical substance,"yeast gene YJL066C, incubated two hours with chemical substance",1.4
same,The level of expressed mRNA in the presence of chemical substance/The level of expressed mRNA in the absence of chemical substance,"yeast gene YJL082W, incubated two hours with chemical substance",0.6
same,The level of expressed mRNA in the presence of chemical substance/The level of expressed mRNA in the absence of chemical substance,"yeast gene YJL151C, incubated two hours with chemical substance",3.5
same,The level of expressed mRNA in the presence of chemical substance/The level of expressed mRNA in the absence of chemical substance,"yeast gene YJL152W, incubated two hours with chemical substance",2.5
same,The level of expressed mRNA in the presence of chemical substance/The level of expressed mRNA in the absence of chemical substance,"yeast gene YJL161W, incubated two hours with chemical substance",1.9
same,The level of expressed mRNA in the presence of chemical substance/The level of expressed mRNA in the absence of chemical substance,"yeast gene YJL171C, incubated two hours with chemical substance",3.6
same,The level of expressed mRNA in the presence of chemical substance/The level of expressed mRNA in the absence of chemical substance,"yeast gene YJR008W, incubated two hours with chemical substance",1.5
same,The level of expressed mRNA in the presence of chemical substance/The level of expressed mRNA in the absence of chemical substance,"yeast gene YJR054W, incubated two hours with chemical substance",0.9
same,The level of expressed mRNA in the presence of chemical substance/The level of expressed mRNA in the absence of chemical substance,yeast gene YKL071W,1.0
same,The level of expressed mRNA in the presence of chemical substance/The level of expressed mRNA in the absence of chemical substance,"yeast gene YKL086W, incubated two hours with chemical substance",0.9
same,The level of expressed mRNA in the presence of chemical substance/The level of expressed mRNA in the absence of chemical substance,"yeast gene YKL151C, incubated two hours with chemical substance",1.4
same,The level of expressed mRNA in the presence of chemical substance/The level of expressed mRNA in the absence of chemical substance,"yeast gene YKL153W, incubated two hours with chemical substance",0.9
